Data taken from patent publication US7566712B2, “Biaryl piperazinyl-pyridine analogues” (Neurogen Corporation, priority 2003, dated 2009).

Biological target: T1, human capsaicin receptor (Homo sapiens, UniProt Q8NER1)
T1 construct: pBK-CMV expression construct encoding the full length human capsaicin receptor; expressed in transfected cells
Test: Calcium mobilization assay, determination of antagonist activity (Example 6)
Assay type: cell-based
Conditions: Table II; IC50 determined as described in Example 6
How it was run: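 Antagonism measured as inhibition of capsaicin-evoked (final concentration = EC50, from an 8-point 1 nM–3 μM curve) Fluo-3 calcium signal in stable hVR1-HEK293 cells. Test compounds at 1–5 μM final, 0.5–6 h dark preincubation at room temperature. IC50 = concentration giving 50% reduction versus agonist-only response.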

T1 sequence (Q8NER1 whole entry): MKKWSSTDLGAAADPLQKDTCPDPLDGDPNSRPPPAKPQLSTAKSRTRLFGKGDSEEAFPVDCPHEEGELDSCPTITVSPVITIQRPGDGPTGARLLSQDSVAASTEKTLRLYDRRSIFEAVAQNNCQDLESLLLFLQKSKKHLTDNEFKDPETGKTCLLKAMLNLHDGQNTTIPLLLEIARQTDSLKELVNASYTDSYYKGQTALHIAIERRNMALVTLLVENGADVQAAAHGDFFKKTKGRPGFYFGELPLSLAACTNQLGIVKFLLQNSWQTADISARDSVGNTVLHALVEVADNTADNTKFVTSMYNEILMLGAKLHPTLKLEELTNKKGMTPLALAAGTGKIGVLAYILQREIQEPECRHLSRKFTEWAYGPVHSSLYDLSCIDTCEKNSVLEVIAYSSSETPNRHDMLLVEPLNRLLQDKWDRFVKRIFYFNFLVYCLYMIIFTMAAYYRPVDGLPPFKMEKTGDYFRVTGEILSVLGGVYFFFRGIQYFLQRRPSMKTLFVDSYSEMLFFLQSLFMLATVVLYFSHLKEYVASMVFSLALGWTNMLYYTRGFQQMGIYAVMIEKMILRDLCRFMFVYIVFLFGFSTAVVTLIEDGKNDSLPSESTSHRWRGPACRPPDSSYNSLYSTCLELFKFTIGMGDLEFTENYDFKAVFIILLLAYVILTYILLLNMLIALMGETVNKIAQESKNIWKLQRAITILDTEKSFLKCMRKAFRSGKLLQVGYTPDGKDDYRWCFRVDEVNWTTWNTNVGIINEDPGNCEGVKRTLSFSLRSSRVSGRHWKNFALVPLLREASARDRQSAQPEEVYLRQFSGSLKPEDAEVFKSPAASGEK

IC50, ≤ 1000 nM:
CCc1ccc(-c2cc(N3CCN(c4ncccc4Cl)C[C@H]3C)nc(N3CCOCC3)n2)cc1 [Example 511, 4-[4-[(2R)-4-(3-chloropyridin-2-yl)-2-methylpiperazin-1-yl]-6-(4-ethylphenyl)pyrimidin-2-yl]morpholine]
CSc1cccc(-c2cc(N3CCN(c4ncccc4C)C[C@H]3C)nc(N3CCOCC3)n2)c1 [Example 537, 4-{4-[(2R)-2-methyl-4-(3-methylpyridin-2-yl)piperazin-1-yl]-6-[3-(methylthio)phenyl]pyrimidin-2-yl}morpholine]
COc1ccc(-c2cc(N3CCN(c4ncccc4C)C[C@H]3C)nc(N3CCOCC3)n2)cc1F [Example 540, 4-{4-(3-fluoro-4-methoxyphenyl)-6-[(2R)-2-methyl-4-(3-methylpyridin-2-yl)piperazin-1-yl]pyrimidin-2-yl}morpholine]
CCc1cccc(-c2cc(N3CCN(c4ncccc4C(F)(F)F)C[C@H]3C)nc(N3CCOCC3)n2)c1 [Example 516, 4-(4-(3-ethylphenyl)-6-{(2R)-2-methyl-4-[3-(trifluoromethyl)pyridin-2-yl]piperazin-1-yl}pyrimidin-2-yl)morpholine]
C[C@@H]1CN(c2ncccc2C(F)(F)F)CCN1c1cc(-c2ccc(C(C)(C)C)cc2)nc(N2CCOCC2)n1 [Example 519, 4-(4-(4-tert-butylphenyl)-6-{(2R)-2-methyl-4-[3-(trifluoromethyl)pyridin-2-yl]piperazin-1-yl}pyrimidin-2-yl)morpholine]
C[C@@H]1CN(c2ncccc2Cl)CCN1c1cc(-c2ccc(C(C)(C)C)cc2)nc(N2CCOCC2)n1 [Example 520, 4-{4-(4-tert-butylphenyl)-6-[(2R)-4-(3-chloropyridin-2-yl)-2-methylpiperazin-1-yl]pyrimidin-2-yl}morpholine]
CSc1cccc(-c2cc(N3CCN(c4ncccc4C#N)C[C@H]3C)nc(N3CCOCC3)n2)c1 [Example 536, 2-((3R)-3-methyl-4-{6-[3-(methylthio)phenyl]-2-morpholin-4-ylpyrimidin-4-yl}piperazin-1-yl)nicotinonitrile]
C[C@@H]1CN(c2ncccc2C(F)(F)F)CCN1c1cc(-c2ccccc2)nc(N2CCOCC2)n1 [Example 478, 4-(4-{(2R)-2-methyl-4-[3-(trifluoromethyl)pyridin-2-yl]piperazin-1-yl}-6-phenylpyrimidin-2-yl)morpholine]

Same assay, conditions: Table II; IC50 determined as described in Example 6 (antagonist activity, calcium mobilization)

IC50, ≤ 1000 nM:
C[C@@H]1CN(c2ncccc2C(F)(F)F)CCN1c1cc(-c2ccc(F)c(F)c2)nc(N2CCC[C@@H]2C)n1 [Example 995, 4-(3,4-difluorophenyl)-2-[(2S)-2-methylpyrrolidin-1-yl]-6-{(2R)-2-methyl-4-[3-(trifluoromethyl)pyridin-2-yl]piperazin-1-yl}pyrimidine]

Same assay, conditions: Table II; determined as described in Example 6 (antagonist activity); "*" = 1 micromolar or less

IC50, ≤ 1000 nM:
C[C@@H]1CN(c2ncccc2Cl)CCN1c1cc(-c2cncc(C#N)c2)nc(N2CCCC2)n1 [Example 879, 5-{6-[(2R)-4-(3-chloropyridin-2-yl)-2-methylpiperazin-1-yl]-2-pyrrolidin-1-ylpyrimidin-4-yl}nicotinonitrile]
C[C@@H]1CN(c2nccnc2Cl)CCN1c1nc(Cl)cc(-c2ccc(F)c(Cl)c2)n1 [Example 906, 4-chloro-6-(3-ohloro-4-fluorophenyl)-2-[4-(3-chloropyrazin-2-yl)-2-methylpiperazin-1-yl]pyrimidine]
CC1CCCN1c1nc(-c2cccc(C#N)c2)cc(N2CCN(c3ncccc3Cl)C[C@H]2C)n1 (stereo in doubt) [Example 869, 3-[6-[4-(3-chloropyridin-2-yl)-2-methylpiperazin-1-yl]-2-(2-methylpyrrolidin-1-yl)pyrimidin-4-yl]benzonitrile]
Fc1ccc(-c2cc(N3CCN(c4ncccc4C(F)(F)F)CC3)nc(N3CCN4CCC[C@H]4C3)n2)cc1Cl [Example 891, (8aS)-2-(4-(3-chloro-4-fluorophenyl)-6-{4-[3-(trifluoromethyl)pyridin-2-yl]piperazin-1-yl}pyrimidin-2-yl)octahydropyrrolo[1,2-a]pyrazine]
CCCN1CCN(c2nc(-c3ccc(F)c(C)c3)cc(N3CCN(c4ncccc4C(F)(F)F)C[C@H]3C)n2)CC1 [Example 787, 4-(4-fluoro-3-methylphenyl)-6-{(2R)-2-methyl-4-[3-(trifluoromethyl)pyridin-2-yl]piperazin-1-yl}-2-(4-propylpiperazin-1-yl)pyrimidine]
Cc1cc(-c2cc(N3CCN(c4nccnc4Cl)C[C@H]3C)nc(Cl)n2)ccc1F [Example 912, 2-chloro-4-[(2R)-4-(3-chloropyrazin-2-yl)-2-methylpiperazin-1-yl]-6-(4-fluoro-3-methylphenyl)pyrimidine]
C[C@@H]1CN(c2ncccc2Cl)CCN1c1cc(-c2ccc(F)c(F)c2)nc(N2CCC[C@H]2C)n1 [Example 925, 4-[(2R)-4-(3-chloropyridin-2-yl)-2-methylpiperazin-1-yl]-6-(3,4-difluorophenyl)-2-[(2R)-2-methylpyrrolidin-1-yl]pyrimidine]

Same assay, conditions: determined as described in Example 6 (calcium mobilization, antagonist activity); Table II

IC50, ≤ 1000 nM:
Cc1cc(-c2cc(N3CCN(c4ncccc4C(F)(F)F)CC3)nc(N3CCCC3C)n2)ccc1F (centres unmarked) [Example 676, 4-(4-fluoro-3-methylphenyl)-2-(2-methylpyrrolidin-1-yl)-6-{4-[3-(trifluoromethyl)pyridin-2-yl]piperazin-1-yl}pyrimidine]
OCCN1CCN(c2nc(-c3ccc(F)c(Cl)c3)cc(N3CCN(c4ncccc4C(F)(F)F)CC3)n2)CC1 [Example 750, 2-[4-(4-(3-chloro-4-fluorophenyl)-6-{4-[3-(trifluoromethyl)pyridin-2-yl]piperazin-1-yl}pyrimidin-2-yl)piperazin-1-yl]ethanol]
C[C@@H]1CN(c2ncccc2Cl)CCN1c1cc(-c2ccc(F)c(F)c2)nc(N2CCCC2)n1 [Example 767, 4-[(2R)-4-(3-chloropyridin-2-yl)-2-methylpiperazin-1-yl]-6-(3,4-difluorophenyl)-2-pyrrolidin-1-ylpyrimidine]
CC1CCCCN1c1nc(-c2ccc(F)c(F)c2)cc(N2CCN(c3ncccc3Cl)C[C@H]2C)n1 (stereo partly drawn) [Example 771, 4-[(2R)-4-(3-chloropyridin-2-yl)-2-methylpiperazin-1-yl]-6-(3,4-difluorophenyl)-2-(2-methylpiperidin-1-yl)pyrimidine]
Cc1cc(-c2cc(N3CCN(c4ncccc4C(F)(F)F)CC3)nc(C(C)O)n2)ccc1F (centres unmarked) [Example 686, 1-(4-(4-fluoro-3-methylphenyl)-6-{4-[3-(trifluoromethyl)pyridin-2-yl]piperazin-1-yl}pyrimidin-2-yl)ethanol]
Cc1cc(-c2cc(N3CCN(c4ncccc4C(F)(F)F)CC3)nc(N3CCCCC3C)n2)ccc1F (centres unmarked) [Example 642, 4-(4-fluoro-3-methylphenyl)-2-(2-methylpiperidin-1-yl)-6-{4-[3-(trifluoromethyl)pyridin-2-yl]piperazin-1-yl}pyrimidine]
C[C@@H]1CN(c2nc(-c3ccc(F)c(Cl)c3)cc(N3CCN(c4ncccc4C(F)(F)F)CC3)n2)[C@@H](C)CN1 [Example 627, 4-(3-chloro-4-fluorophenyl)-2-[(2S,5R)-2,5-dimethylpiperazin-1-yl]-6-{4-[3-(trifluoromethyl)pyridin-2-yl]piperazin-1-yl}pyrimidine]
CCc1nccn1-c1nc(-c2ccc(F)c(Cl)c2)cc(N2CCN(c3ncccc3C(F)(F)F)CC2)n1 [Example 648, 4-(3-chloro-4-fluorophenyl)-2-(2-ethyl-1H-imidazol-1-yl)-6-{4-[3-(trifluoromethyl)pyridin-2-yl]piperazin-1-yl}pyrimidine]
CC1CCC(C)N1c1nc(-c2ccc(F)c(Cl)c2)cc(N2CCN(c3ncccc3Cl)C[C@H]2C)n1 (stereo partly drawn) [Example 752, 4-(3-chloro-4-fluorophenyl)-6-[(2R)-4-(3-chloropyridin-2-yl)-2-methylpiperazin-1-yl]-2-(2,5-dimethylpyrrolidin-1-yl)pyrimidine]
COC[C@@H]1CCCN1c1nc(-c2ccc(F)c(C)c2)cc(N2CCN(c3ncccc3Cl)CC2)n1 [Example 726]
Cc1cc(-c2cc(N3CCN(c4ncccc4C(F)(F)F)CC3)nc(N3CCN(C(=O)OC(C)(C)C)CC3)n2)ccc1F [Example 643, tert-butyl 4-(4-(4-fluoro-3-methylphenyl)-6-{4-[3-(trifluoromethyl)pyridin-2-yl]piperazin-1-yl}pyrimidin-2-yl)piperazine-1-carboxylate]
CN(CC(=O)O)c1nc(-c2ccc(F)c(Cl)c2)cc(N2CCN(c3ncccc3C(F)(F)F)CC2)n1 [Example 619, N-(4-(3-chloro-4-fluorophenyl)-6-{4-[3-(trifluoromethyl)pyridin-2-yl]piperazin-1-yl}pyrimidin-2-yl)-N-methylglycine]
CC(CO)N(C)c1nc(-c2ccc(F)c(Cl)c2)cc(N2CCN(c3ncccc3C(F)(F)F)CC2)n1 (centres unmarked) [Example 758, 2-[(4-(3-chloro-4-fluorophenyl)-6-{4-[3-(trifluoromethyl)pyridin-2-yl]piperazin-1-yl}pyrimidin-2-yl)(methyl)amino]propan-1-ol]
